From patent US9464071B2 (priority 2010, dated 2016)
“And” between values parts separate entries of the source, which are not always exact repeats. Identical values can stand only once. Counter-ions that a name gives are not always drawn.

SMILES | melting point
COc1cc(OC)cc(N(Cc2ccc(Cl)s2)c2ccc3ncc(-c4cnn(Cc5ccc(Cl)s5)c4)nc3c2)c1 | 131.39 °C
COc1cc(OC)cc(N(CC2CC2)c2ccc3ncc(-c4cnn(CCNS(=O)(=O)N(C)C)c4)nc3c2)c1 | 160.27 °C
COc1cc(OC)cc(N(CC#Cc2nccc(OC)n2)c2ccc3ncc(-c4cnn(C)c4)nc3c2)c1 | 175 °C
CONCCN(c1cc(OC)cc(OC)c1)c1ccc2ncc(-c3cnn(C)c3)nc2c1 | 177 °C
COCC(O)CN(c1cc(OC)cc(OC)c1)c1ccc2ncc(-c3cnn(C(C)C)c3)nc2c1 (single isomer, unassigned) (as salt: HCl) | 95 °C
COc1cc(OC)cc(N(CCO)c2ccc3ncc(-c4cnn(C)c4CCCO)nc3c2)c1 | 62 °C
COc1cc(OC)cc(N(c2ccc3ncc(-c4cnn(C)c4)nc3c2)[C@H]2CC[C@H](NC(C)C)CC2)c1 | 107 °C
COc1cc(OC)cc(N(CCN)c2ccc3ncc(-c4cn[nH]c4)nc3c2)c1 | 184 °C
COc1cc(OC)cc(N(CC2CC2)c2ccc3ncc(-c4cnn(CC(C)(C)O)c4)nc3c2)c1 | 159.08 °C and 159 °C
COc1cc(OC)cc(N(CCO)c2ccc3ncc(-c4cn[nH]c4)nc3c2)c1 [Compound 2] | 169.26 °C and 169 °C
COc1cc(OC)cc(N(c2ccc3ncc(-c4cnn(C)c4)nc3c2)C2COC2)c1 | 160.14 °C and 164 °C
COc1cc(OC)cc(N(Cc2cc3ncccc3n2C)c2ccc3ncc(-c4cnn(C)c4)nc3c2)c1 | 241 °C
C#CCN(c1cc(OC)cc(OC)c1)c1ccc2ncc(-c3cnn(C)c3)nc2c1 [Compound 38] | 168 °C
COc1cc(OC)cc(N(CC(F)CN)c2ccc3ncc(-c4cnn(C)c4)nc3c2)c1 (centres unmarked) | 168 °C
COc1cc(OC)cc(N(CC#Cc2cccc(N)n2)c2ccc3ncc(-c4cnn(C)c4)nc3c2)c1 | 203 °C
COc1cc(OC)cc(N(CCCn2cc(C)nc2C)c2ccc3ncc(-c4cnn(C)c4)nc3c2)c1 (as salt: HCl) | 157 °C
COc1cc(C#N)cc(N(CC2CC2)c2ccc3ncc(-c4cnn(C)c4)nc3c2)c1 | 143 °C
COc1cc(F)cc(N(CC2CC2)c2ccc3ncc(-c4cnn(C)c4)nc3c2)c1 | 142 °C
CCn1cc(-c2cnc3ccc(N(CCCN4CCCC4=O)c4cc(OC)cc(OC)c4)cc3n2)cn1 (as salt: HCl) | 197 °C

SMILES | melting point
COc1cc(OC)cc(N(CCN2C[C@H](C)C[C@H](C)C2)c2ccc3ncc(-c4cnn(C)c4)nc3c2)c1 [Compound 39] | 80 °C
COc1cc(OC)cc(N(CCN(C)C(C)C)c2ccc3ncc(-c4cnn(C)c4)nc3c2)c1 | 126 °C
COc1cc(OCCO)cc(N(CC2CC2)c2ccc3ncc(-c4cn[nH]c4)nc3c2)c1 | 80 °C
COc1cc(OC)cc(N(CC2OCCN(C(C)C)C2=O)c2ccc3ncc(-c4cnn(C)c4)nc3c2)c1 (centres unmarked) | 187 °C
CNC(=O)Cn1cc(-c2cnc3ccc(N(CCN)c4cc(OC)cc(OC)c4)cc3n2)cn1 [Compound 34] | 174 °C and 173.67 °C
COc1cc(OC)cc(N(CCNC(C)C)c2ccc3ncc(-c4cnn(C5CCOC5)c4)nc3c2)c1 (centres unmarked) (as salt: HCl) | 160 °C
COc1cc(OC)cc(N(CCCN2CCC[C@H]2CC#N)c2ccc3ncc(-c4cnn(C)c4)nc3c2)c1 (as salt: HCl) | 135 °C
COc1cccc(C#CCN(c2cc(OC)cc(OC)c2)c2ccc3ncc(-c4cnn(C)c4)nc3c2)c1 | 85 °C
CNC(=O)Cn1cc(-c2cnc3ccc(N(CCO)c4cc(OC)cc(OC)c4)cc3n2)cn1 [Compound 21] | 204.45 °C and 204.5 °C
COc1cc(OC)cc(N(c2ccc3ncc(-c4cnn(C)c4)nc3c2)S(=O)(=O)N(C)C)c1 | 80 °C
COc1cc(OC)cc(N(CCN2CCC(CN)CC2)c2ccc3ncc(-c4cnn(C)c4)nc3c2)c1 (as salt: HCl) | 151 °C
COc1cc(OC)cc(N(CCc2nnn[nH]2)c2ccc3ncc(-c4cnn(C)c4)nc3c2)c1 | 196 °C and 195.95 °C
CNCCN(c1cc(OC)cc(OC)c1)c1ccc2ncc(-c3cn[nH]c3)nc2c1 | 193.59 °C
COc1cc(OCCO)cc(N(CC2CC2)c2ccc3ncc(-c4cnn(CCS(C)(=O)=O)c4)nc3c2)c1 | 80 °C
COc1cc(OC)cc(N(CC2CC2)c2ccc3ncc(-c4cnn(C(C)(C)C(=O)NCCO)c4)nc3c2)c1 | 149.27 °C
CCOP(=O)(CCN(c1cc(OC)cc(OC)c1)c1ccc2ncc(-c3cnn(C)c3)nc2c1)OCC | 122 °C
COc1cc(OC)cc(N(CC2CCN(CC(F)(F)F)CC2)c2ccc3ncc(-c4cnn(C)c4)nc3c2)c1 | 123 °C and 123.5 °C
COc1cc(OC)cc(N(CC2CNC(=O)O2)c2ccc3ncc(-c4cnn(C)c4)nc3c2)c1 (centres unmarked) | 157 °C
COc1cc(OC)cc(N(CC(=O)NCCO)c2ccc3ncc(-c4cnn(C)c4)nc3c2)c1 | 201.43 °C

Second part, the molecule after the results:

melting point | SMILES
163 °C | COc1cc(OC)cc(N(Cc2cnccn2)c2ccc3ncc(-c4cnn(C)c4)nc3c2)c1 [Compound 146, N-(3,5-Dimethoxyphenyl)-3-(1-methyl-1H-pyrazol-4-yl)-N-(pyrazin-2-ylmethyl)quinoxalin-6-amine]
202.94 °C | COc1cc(OC)cc(N(CCC#N)c2ccc3ncc(-c4cnn(C)c4)nc3c2)c1 [Compound 122]
189 °C and 189.27 °C | COc1cc(OC)cc(N(CCCNS(C)(=O)=O)c2ccc3ncc(-c4cnn(C)c4)nc3c2)c1 [Compound 48]
176 °C and 176.49 °C | CNC(=O)Cn1cc(-c2cnc3ccc(N(CCCO)c4cc(OC)cc(OC)c4)cc3n2)cn1 [Compound 313]
168.45 °C | COc1cc(OC)cc(N(Cc2csc(C)n2)c2ccc3ncc(-c4cnn(C)c4)nc3c2)c1 [Compound 263]
143.58 °C | COc1cc(OC)cc(N(CCN2CCC(N(C)C)C2)c2ccc3ncc(-c4cnn(C)c4)nc3c2)c1 (centres unmarked) [Compound 456]
262.42 °C | CNC(=O)c1cc(OC)cc(N(CC2CC2)c2ccc3ncc(-c4cn[nH]c4)nc3c2)c1 [Compound 311]
150 °C | COc1cc(OC)cc(N(CCC(C)(C)O)c2ccc3ncc(-c4cnn(C)c4)nc3c2)c1 [Compound 141, 4-{(3,5-Dimethoxyphenyl)[3-(1-methyl-1H-pyrazol-4-yl)quinoxalin-6-yl]amino}-2-methylbutan-2-ol]
160.65 °C | COc1cc(OC)cc(N(CCNCC(F)F)c2ccc3ncc(-c4cnn(C)c4)nc3c2)c1 [Compound 513]
234.8 °C | COc1cc(OC)cc(N(C[C@@H](O)CN2CC[C@H](C#N)C2)c2ccc3ncc(-c4cnn(C)c4)nc3c2)c1 [Compound 526]
139 °C | COc1cc(F)cc(N(CCO)c2ccc3ncc(-c4cnn(CCO)c4)nc3c2)c1 [Compound 315]
184.72 °C | COc1cc(OC)cc(N(CCN2CCN(C(C)=O)CC2)c2ccc3ncc(-c4cnn(C)c4)nc3c2)c1 [Compound 143, N-[2-(4-Acetylpiperazin-1-yl)ethyl]-N-(3,5-dimethoxyphenyl)-3-(1-methyl-1H-pyrazol-4-yl)quinoxalin-6-amine]
140.67 °C | COc1ccc(OC)c(N(CCN)c2ccc3ncc(-c4cn[nH]c4)nc3c2)c1 [Compound 438]
201 °C | COc1cc(OC)cc(N(CCN2CCOCC2)c2ccc3ncc(-c4cnn(C)c4)nc3c2)c1 [Compound 299]
166.2 °C | Cn1cc(-c2ccc3ncc(N(CC4CC4)c4cccc(OC(F)F)c4)nc3c2)cn1 [Compound 209]
166 °C | COc1cc(OC)cc(N(CC#CC2(O)CCN(C(=O)OC(C)(C)C)CC2)c2ccc3ncc(-c4cnn(C)c4)nc3c2)c1 [Compound 914]
194 °C | CCn1cc(-c2cnc3ccc(N(CCNC(C)C)c4cc(OC)cc(OC)c4)cc3n2)cn1 (as salt: HCl) [Compound 135, N-(3,5-Dimethoxyphenyl)-N-[3-(1-ethyl-1H-pyrazol-4-yl)quinoxalin-6-yl]-N′-(1-methylethyl)ethane-1,2-diamine]
186.98 °C | COc1cc(OC)cc(N(C[C@H](O)CO)c2ccc3ncc(-c4cnn(C)c4)nc3c2)c1 (single isomer, unassigned) [Compound 98]
112.31 °C | COc1cc(OC)cc(N(CCCN2CC(F)(F)C2)c2ccc3ncc(-c4cnn(C)c4)nc3c2)c1 [Compound 377]
70 °C | CNCCN(c1cc(F)cc(OC)c1)c1ccc2ncc(-c3cnn(C)c3)nc2c1 [Compound 510]
200 °C | COc1cc(OC)cc(N(CCCc2nccc(O)n2)c2ccc3ncc(-c4cnn(C)c4)nc3c2)c1 [Compound 663]
198.91 °C | COc1cc(OC)cc(N(CCCN)c2ccc3ncc(-c4cn[nH]c4)nc3c2)c1 [Compound 338]
170 °C | COc1cc(OC)cc(N(Cc2ncccn2)c2ccc3ncc(-c4cnn(C)c4)nc3c2)c1 [Compound 812]
122.79 °C | CCS(=O)(=O)NCCN(c1cc(OC)cc(OC)c1)c1ccc2ncc(-c3cnn(C)c3)nc2c1 [Compound 335]
186 °C | COc1cc(OC)cc(N(Cc2nccn2C)c2ccc3ncc(-c4cnn(C)c4)nc3c2)c1 [Compound 101]
132.47 °C | COc1cc(OC)cc(N(CCCN2CCCC2=O)c2ccc3ncc(-c4cnn(C)c4)nc3c2)c1 [Compound 132, 1-(3-{(3,5-Dimethoxyphenyl)[3-(1-methyl-1H-pyrazol-4-yl)quinoxalin-6-yl]amino}propyl)pyrrolidin-2-one]
156.5 °C | Cn1cc(-c2cnc3ccc(N(CC4CC4)c4cccc(OC(F)(F)F)c4)cc3n2)cn1 [Compound 881]
149.13 °C | COc1cc(OC)cc(N(CC(O)C(F)(F)F)c2ccc3ncc(-c4cnn(C)c4)nc3c2)c1 (single isomer, unassigned) [Compound 148, (2R*)-3-{(3,5-Dimethoxyphenyl)[3-(1-methyl-1H-pyrazol-4-yl)quinoxalin-6-yl]amino}-1,1,1-trifluoropropan-2-ol]
134 °C | CNC(=O)Cn1cc(-c2cnc3ccc(N(CCCNC(C)C)c4cc(OC)cc(OC)c4)cc3n2)cn1 [Compound 615]
130 °C | COc1cc(OC)cc(N(CCC#Cc2ccccc2)c2ccc3ncc(-c4cnn(C)c4)nc3c2)c1 [Compound 919]
